Assays:
[1] = biological target: T1, Urotensin-2 receptor (Rattus norvegicus) (UniProt P49684); experiment: Agonist activity at UT receptor in Sprague-Dawley rat thoracic aortic ring assessed as induction of contraction relative to KCl-induced contraction; assay type: functional
T1 sequence (whole entry): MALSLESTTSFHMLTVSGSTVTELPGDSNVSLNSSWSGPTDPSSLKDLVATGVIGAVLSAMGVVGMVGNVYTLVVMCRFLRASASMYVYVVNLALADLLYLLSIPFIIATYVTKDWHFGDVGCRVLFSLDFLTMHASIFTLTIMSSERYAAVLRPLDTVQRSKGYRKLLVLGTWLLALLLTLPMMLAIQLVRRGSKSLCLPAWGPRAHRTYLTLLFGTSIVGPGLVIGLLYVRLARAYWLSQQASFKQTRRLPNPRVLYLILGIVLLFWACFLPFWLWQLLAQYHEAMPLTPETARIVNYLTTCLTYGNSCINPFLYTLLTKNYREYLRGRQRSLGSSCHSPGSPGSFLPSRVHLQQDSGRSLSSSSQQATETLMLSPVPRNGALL

[2] = biological target: T1, Urotensin-2 receptor (Rattus norvegicus); experiment: (§1) Antagonist activity at UT receptor in Sprague-Dawley rat thoracic aortic ring assessed as reduction in urotensin-2-induced contraction by measuring Emax for human urotensin-2-induced contraction at 1 uM pre-incubated for 30 mins before urotensin-2 stimulation relative to KCl-induced contraction (reference value: 101 +/- 4%); assay type: functional
[3] = biological target: T1, Urotensin-2 receptor (Rattus norvegicus); experiment: as §1, with “in URP-induced” for “in urotensin-2-induced”, “value: 107” for “value: 101”, “+/- 3%)” for “+/- 4%)”; assay type: functional
[4] = biological target: T2, Urotensin-2 receptor (Homo sapiens) (UniProt Q9UKP6); experiment: Agonist activity at human UT receptor expressed in HEK293 cells co-expressing Gq-polycistronic BRET biosensor assessed as induction of Gq activation measured for 5 mins by luminescence detection based BRET assay relative to 10 uM URP; assay type: functional, cell-based
T2 sequence (whole entry): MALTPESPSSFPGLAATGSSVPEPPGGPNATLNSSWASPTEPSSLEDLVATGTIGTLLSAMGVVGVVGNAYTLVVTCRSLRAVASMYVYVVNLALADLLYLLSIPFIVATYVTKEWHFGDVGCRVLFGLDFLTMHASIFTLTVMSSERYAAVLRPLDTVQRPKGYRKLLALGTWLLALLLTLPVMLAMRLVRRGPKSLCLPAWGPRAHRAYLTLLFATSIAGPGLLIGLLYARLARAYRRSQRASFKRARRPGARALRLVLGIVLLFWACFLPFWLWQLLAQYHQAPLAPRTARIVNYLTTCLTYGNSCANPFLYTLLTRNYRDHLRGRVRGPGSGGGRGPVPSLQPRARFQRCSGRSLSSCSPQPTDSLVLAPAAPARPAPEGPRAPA

[5] = biological target: T2, Urotensin-2 receptor (Homo sapiens); experiment: Agonist activity at human UT receptor expressed in HEK293 cells co-expressing G12-polycistronic BRET biosensor assessed as induction of G12 activation measured for 5 mins by luminescence detection based BRET assay relative to 10 uM URP; assay type: functional, cell-based
[6] = biological target: T2, Urotensin-2 receptor (Homo sapiens); experiment: Agonist activity at human UT receptor expressed in HEK293 cells co-expressing beta-arrestin1-polycistronic BRET biosensor assessed as induction of beta-arrestin1 recruitment measured for 5 mins by luminescence detection based BRET assay relative to 10 uM URP; assay type: functional, cell-based
[7] = biological target: T2, Urotensin-2 receptor (Homo sapiens); experiment: (§2) Selectivity index, change in deltalog(Tau/KA) for agonist activity at human UT receptor expressed in HEK293 cells co-expressing G12-polycistronic BRET biosensor assessed as induction of G12 activation by luminescence detection based BRET assay to deltalog(Tau/KA) for agonist activity at human UT receptor expressed in HEK293 cells co-expressing Gq-polycistronic BRET biosensor assessed as induction of Gq activation by luminescence detection based BRET assay; assay type: functional, cell-based
[8] = biological target: T2, Urotensin-2 receptor (Homo sapiens); experiment: as §2, with “Bias factor, ratio of” for “Selectivity index, change in”; assay type: functional, cell-based
[9] = biological target: T2, Urotensin-2 receptor (Homo sapiens); experiment: (§3) Bias factor, ratio of deltalog(Tau/KA) for agonist activity at human UT receptor expressed in HEK293 cells co-expressing Gq-polycistronic BRET biosensor assessed as induction of Gq activation by luminescence detection based BRET assay to deltalog(Tau/KA) for agonist activity at human UT receptor expressed in HEK293 cells co-expressing G12-polycistronic BRET biosensor assessed as induction of G12 activation by luminescence detection based BRET assay; assay type: functional, cell-based
[10] = biological target: T2, Urotensin-2 receptor (Homo sapiens); experiment: Selectivity index, change in deltalog(Tau/KA) for agonist activity at human UT receptor expressed in HEK293 cells co-expressing Gq-polycistronic BRET biosensor assessed as induction of Gq activation by luminescence detection based BRET assay to deltalog(Tau/KA) for agonist activity at human UT receptor expressed in HEK293 cells co-expressing beta-arrestin1-polycistronic BRET biosensor assessed as induction of beta-arrestin1 recruitment by luminescence detection based BRET assay; assay type: functional, cell-based
[11] = biological target: T2, Urotensin-2 receptor (Homo sapiens); experiment: as §3, with “beta-arrestin1-polycistronic” for “G12-polycistronic”, “beta-arrestin1 recruitment” for “G12 activation”; assay type: functional, cell-based
[12] = biological target: T2, Urotensin-2 receptor (Homo sapiens); experiment: (§4) Bias factor, ratio of deltalog(Tau/KA) for agonist activity at human UT receptor expressed in HEK293 cells co-expressing beta-arrestin1-polycistronic BRET biosensor assessed as induction of beta-arrestin1 recruitment by luminescence detection based BRET assay to deltalog(Tau/KA) for agonist activity at human UT receptor expressed in HEK293 cells co-expressing Gq-polycistronic BRET biosensor assessed as induction of Gq activation by luminescence detection based BRET assay; assay type: functional, cell-based
[13] = biological target: T2, Urotensin-2 receptor (Homo sapiens); experiment: Selectivity index, change in deltalog(Tau/KA) for agonist activity at human UT receptor expressed in HEK293 cells co-expressing beta-arrestin1-polycistronic BRET biosensor assessed as induction of beta-arrestin1 recruitment by luminescence detection based BRET assay to deltalog(Tau/KA) for agonist activity at human UT receptor expressed in HEK293 cells co-expressing G12-polycistronic BRET biosensor assessed as induction of G12 activation by luminescence detection based BRET assay to; assay type: functional, cell-based
[14] = biological target: T2, Urotensin-2 receptor (Homo sapiens); experiment: as §4, with “G12-polycistronic” for “Gq-polycistronic”, “G12” for “Gq”; assay type: functional, cell-based
[15] = biological target: T2, Urotensin-2 receptor (Homo sapiens); experiment: Bias factor, ratio of deltalog(Tau/KA) for agonist activity at human UT receptor expressed in HEK293 cells co-expressing G12-polycistronic BRET biosensor assessed as induction of G12 activation by luminescence detection based BRET assay to deltalog(Tau/KA) for agonist activity at human UT receptor expressed in HEK293 cells co-expressing beta-arrestin1-polycistronic BRET biosensor assessed as induction of beta-arrestin1 recruitment by luminescence detection based BRET assay; assay type: functional, cell-based
[16] = biological target: T3, Urotensin-2 receptor (Homo sapiens, UniProt Q9UKP6); experiment: Displacement of [Na125I]-synthetic URP from human UT receptor expressed in HEK293 cell membranes incubated for 2 hrs by gamma-counting
T3 sequence (Q9UKP6 whole entry): T2 sequence (whole entry)

[17] = biological target: T4, Urotensin-2 receptor (Rattus norvegicus, UniProt P49684); experiment: Agonist activity at UT receptor in Sprague-Dawley rat thoracic aortic ring assessed as induction of contraction; assay type: functional
T4 sequence (P49684 whole entry): T1 sequence (whole entry)

[18] = biological target: T3, Urotensin-2 receptor; experiment: Agonist activity at human UT receptor expressed in HEK293 cells co-expressing Gq-polycistronic BRET biosensor assessed as induction of Gq activation measured for 5 mins by luminescence detection based BRET assay; assay type: functional, cell-based
[19] = biological target: T3, Urotensin-2 receptor; experiment: Agonist activity at human UT receptor expressed in HEK293 cells co-expressing G12-polycistronic BRET biosensor assessed as induction of G12 activation measured for 5 mins by luminescence detection based BRET assay; assay type: functional, cell-based
[20] = biological target: T3, Urotensin-2 receptor; experiment: Agonist activity at human UT receptor expressed in HEK293 cells co-expressing beta-arrestin1-polycistronic BRET biosensor assessed as induction of beta-arrestin1 recruitment measured for 5 mins by luminescence detection based BRET assay; assay type: functional, cell-based

Compound	Emax [1]	Emax [2]	Emax [3]	Emax [4]	Emax [5]	Emax [6]	deltalog(Tau/KA) [7]	fold change (FC) [8]	fold change (FC) [9]	selectivity index, deltadeltalog(Tau/KA) [10]	fold change (FC) [11]	fold change (FC) [12]	deltadeltalog(Tau/KA) (beta-arrestin1 selectivity index) [13]	fold change (FC) [14]	fold change (FC) [15]	IC50 [16]	EC50 [17]	EC50 [18]	EC50 [19]	EC50 [20]
CC(C)[C@H](NC(=O)[C@@H]1CSSC[C@H](NC(=O)[C@@H](C)N)C(=O)N[C@@H](Cc2ccc(I)cc2)C(=O)N[C@@H](Cc2c[nH]c3ccccc23)C(=O)N[C@@H](CCCCN)C(=O)N[C@@H](Cc2ccc(O)cc2)C(=O)N1)C(=O)O	20%	52%	100%	87%	68%	99%	0.89	7.8	0.1	-0.94	0.1	8.6	0.04	1.1	0.9					
CC(C)[C@H](NC(=O)[C@@H]1CSSC[C@H](NC(=O)[C@H](C)N)C(=O)N[C@H](Cc2ccc(C#Cc3ccccc3)cc2)C(=O)N[C@@H](Cc2c[nH]c3ccccc23)C(=O)N[C@@H](CCCCN)C(=O)N[C@@H](Cc2ccc(O)cc2)C(=O)N1)C(=O)O																> 1000 nM	1.35 nM	617 nM	380 nM	3310 nM
CC(C)[C@H](NC(=O)[C@@H]1CSSC[C@H](NC(=O)[C@@H](N)CC(=O)O)C(=O)N[C@@H](Cc2ccc(I)cc2)C(=O)N[C@@H](Cc2c[nH]c3ccccc23)C(=O)N[C@@H](CCCCN)C(=O)N[C@@H](Cc2ccc(O)cc2)C(=O)N1)C(=O)O	112%			100%	94%	104%	0.22	1.7	0.6	-0.1	0.8	1.2	-0.13	0.8	1.3	3.98 nM	10.5 nM	7.08 nM	36.3 nM	191 nM
CC(C)[C@H](NC(=O)[C@@H]1CSSC[C@H](NC(=O)[C@@H](N)CC(=O)O)C(=O)N[C@H](Cc2ccc(I)cc2)C(=O)N[C@@H](Cc2c[nH]c3ccccc23)C(=O)N[C@@H](CCCCN)C(=O)N[C@@H](Cc2ccc(O)cc2)C(=O)N1)C(=O)O																> 1000 nM	> 10000 nM	46.8 nM	123 nM	347 nM
CC(C)[C@H](NC(=O)[C@@H]1CSSC[C@H](NC(=O)[C@H](C)N)C(=O)N[C@@H](Cc2ccc(I)cc2)C(=O)N[C@@H](Cc2c[nH]c3ccccc23)C(=O)N[C@@H](CCCCN)C(=O)N[C@@H](Cc2ccc(O)cc2)C(=O)N1)C(=O)O	53%			97%	73%	101%	-0.12	0.8	1.3	-0.32	0.5	2.1	0.45	2.8	0.4	5.62 nM	31.6 nM	10.7 nM	47.9 nM	182 nM
CC(C)[C@H](NC(=O)[C@@H]1CSSC[C@H](NC(=O)[C@H](C)N)C(=O)N[C@H](Cc2ccc(I)cc2)C(=O)N[C@@H](Cc2c[nH]c3ccccc23)C(=O)N[C@@H](CCCCN)C(=O)N[C@@H](Cc2ccc(O)cc2)C(=O)N1)C(=O)O																> 1000 nM	13.8 nM	53.7 nM	89.1 nM	355 nM
CC(C)[C@H](NC(=O)[C@@H]1CSSC[C@H](NC(=O)[C@@H](C)N)C(=O)N[C@@H](Cc2ccc(-c3ccccc3)cc2)C(=O)N[C@@H](Cc2c[nH]c3ccccc23)C(=O)N[C@@H](CCCCN)C(=O)N[C@@H](Cc2ccc(O)cc2)C(=O)N1)C(=O)O	10%	95%	91%	102%	74%	60%	1.7	50	0	-1.16	0.1	14.4	-0.54	0.3	3.5					
CC(C)[C@H](NC(=O)[C@@H]1CSSC[C@H](NC(=O)[C@H](C)N)C(=O)N[C@@H](Cc2ccccc2)C(=O)N[C@@H](Cc2c[nH]c3ccccc23)C(=O)N[C@@H](CCCCN)C(=O)N[C@@H](Cc2ccc(O)cc2)C(=O)N1)C(=O)O	107%						0	1	1	0	1	1	0	1	1	19.5 nM	6.92 nM	3.63 nM	91.2 nM	145 nM
CC(C)[C@H](NC(=O)[C@@H]1CSSC[C@H](NC(=O)[C@H](C)N)C(=O)N[C@H](Cc2ccc(-c3ccccc3)cc2)C(=O)N[C@@H](Cc2c[nH]c3ccccc23)C(=O)N[C@@H](CCCCN)C(=O)N[C@@H](Cc2ccc(O)cc2)C(=O)N1)C(=O)O																> 1000 nM	1.91 nM	3550 nM	661 nM	1150 nM
CC(C)[C@H](NC(=O)[C@@H]1CSSC[C@H](NC(=O)[C@@H](C)N)C(=O)N[C@@H](Cc2ccc(C#Cc3ccccc3)cc2)C(=O)N[C@@H](Cc2c[nH]c3ccccc23)C(=O)N[C@@H](CCCCN)C(=O)N[C@@H](Cc2ccc(O)cc2)C(=O)N1)C(=O)O	8%	100%	104%	101%	72%	36%	1.08	12.1	0.1	-0.34	0.5	2.2	-0.75	0.2	5.6					
